Data taken from patent publication US11512085B2, “Heteroaryl compound having drug activity” (SHANGHAI DUDE MEDICAL TECHNOLOGY CO., LTD, priority 2017, dated 2022).
Read-outs that look alike come from different tables or passages of the source.

What was measured:
Btk = Btk (Homo sapiens, UniProt Q06187); assay: Determination of Btk enzyme inhibitory activity; type: biochemical; conditions: 2 nM BTK
Protocol: Determination of Btk Enzyme Inhibitory Activity
Buffer solution: 50 mM Hepes pH 7.0, 0.1 mM Orthovanadate, 5 mM MgCl2, 0.01% of BSA;
1 mM TK-peptide, […], 50 nM SEB;
Pre-incubation for 15 minutes;
Reaction at 23° C. for 90 minutes;
Color Development Reaction:
Developing buffer solution: 50 mM Hepes pH8.0, 0.8 M KF, 20 mM EDTA, 0.01% BSA;
Reaction at 23° C. for 60 minutes;

[1] = Rat liver microsome stability test; type: in vitro ADME
Protocol: Preparation of Buffer Solution:
1. 100 mM potassium phosphate buffer solution, pH of 7.4
Preparation of Test Compound Solution:
1. A test compound solution (10 mM, 5 μL) was diluted with a methanol solution (495 μL), and a 100 μM solution was prepared;
2. Preparation of a working solution: the above solution (50 μL) was diluted with the potassium phosphate buffer solution (450 μL, 100 mM) so as to obtain diluents (10 μM).
NADPH Regeneration System (Final Concentration 1 Unit/mL of Isocitrate Dehydrogenase):
1. beta-NADP, supplier: sigma Cat. No. N0505
3. isocitrate dehydrogenase, supplier: sigma Cat. No. 12002
Cold acetonitrile containing 100 ng/mL of tolbutamide and 100 ng/mL of labetalol serves as an internal standard
1. a 10 μL/well of working solution was added into plates (T0, T5, T10, T20, T30, T60, NCF60) beyond the blank;
2. a 80 μL/well of microsome solution was added, and incubation was performed at 37° C. for 10 min;
3. a 10 μL of 100 mM phosphate buffer solution was added into each well of an NCF60 plate, the plate was placed in a warm bath at 37° C., and timing started;
4. a 10 μL/well of NADPH regeneration system was added after preheating, and a reaction started;
5. incubation was performed at 37° C., and timing started
6. a 300 μL/well of stop solution was added (4° C., containing 100 ng/mL of tolbutamide and 100 ng/mL of labetalol) to end the reaction;
7. the plate was shaken for 10 min;
8. centrifugation was performed at 4° C. at a rotation speed of 4000 rpm; and
9. sample LC/MS/MS detection was performed.
Data Analysis Use Equation of First Order Kinetics to Calculate t½ and Clint(Mic): […]
equation of first order kinetics: […]

[2] = Pharmacokinetic study, single intravenous and oral dose, beagle dogs; type: in vivo; conditions: male, blood; for AUC(0-t) / Cmax / Tmax / half-life: Dog; for half-life: read-out: T½ (converted)
Protocol: Biological Embodiment 7: Pharmacokinetic Study of Performing Respective Single Intravenous and Oral Dose Delivery with Test Samples on SD Rats and Beagle Dogs
6 male beagle dogs were selected, grouped and administered according to an experimental design table; 3 animals in the first group were intravenously administered once on the day of administration, wherein the administration dosage was 2 mg/kg, and the administration volume was 2.5 mL/kg; 3 animals in the second group were orally intragastrically administered once on the day of administration, wherein the administration dosage was 30 mg/kg, and the administration volume was 5 mL/kg.
All the animals were subjected to cage edge observation twice every day so as to determine whether the animals got ill or had injuries or death and other situations and whether supply of foods and water was sufficient. In the test process, all administered animals were subjected to detailed clinical observation before administration and at blood collection points.
Before administration (0 h) and within 0.083 h, 0.25 h, 0.5 h, 1 h, 2 h, 4 h, 6 h, 8 h and 24 h after administration, blood samples were collected from femoral veins at 10 time points so as to be used for blood concentration test. Experimental design table

TMD8 = assay: In vitro tumor cell proliferation (CellTiter-Glo), TMD8; type: cell-based; conditions: Homo sapiens, TMD8, 72 h; read-out: Growth IC50
Protocol: (§1) Biological Embodiment 8: Study on Effects of Active Compounds for Inhibiting In Vitro Tumor Cell Proliferation
(§2) Promega CellTiter-Glo cell activity detection kit by luminescence (Promega-G7573).
(§3) Tumor cell lines were cultured in a 5% of CO2 incubator at 37° C. according to respective culture conditions; and periodic passage was performed, and cells positioned in a logarithmic phase were taken for planking.
(§4) 3) 90 μL of cell suspension was added into each well of the culture plate, and a culture solution containing no cell was added into blank control;
(§5) 4) the culture plate was cultured overnight in the 5% of CO2 incubator having relative humidity of 100% at 37° C.
(§6) Preparation of a 400× compound storage plate: the compound was diluted from the maximum concentration gradient to the lowest concentration with DMSO. […]
(§7) The following steps were performed according to the specification of the Promega CellTiter-Glo cell activity detection kit by luminescence (Promega-G7573). […]
(§8) 9) the luminescence signal was detected on the 2104 EnVision plate reader.

SU-DHL-4 = assay: In vitro tumor cell proliferation (CellTiter-Glo), SU-DHL-4; type: cell-based; conditions: Homo sapiens, SU-DHL-4, 72 h; read-out: Growth IC50
Protocol: as §1, §2, §3, §4, §5, §6, §7, §8

WSU-NHL = assay: In vitro tumor cell proliferation (CellTiter-Glo), WSU-NHL; type: cell-based; conditions: Homo sapiens, 72 h, read-out: Growth IC50
Protocol: as §1, §2, §3, §4, §5, §6, §7, §8

Ramos = assay: In vitro tumor cell proliferation (CellTiter-Glo), Ramos; type: cell-based; conditions: Homo sapiens, 72 h, read-out: Growth IC50
Protocol: as §1, §2, §3, §4, §5, §6, §7, §8

Granta-519 = assay: In vitro tumor cell proliferation (CellTiter-Glo), Granta-519; type: cell-based; conditions: Homo sapiens, Granta-519, 72 h; read-out: Growth IC50
Protocol: as §1, §2, §3, §4, §5, §6, §7, §8

DB = assay: In vitro tumor cell proliferation (CellTiter-Glo), DB; type: cell-based; conditions: Homo sapiens, 72 h, read-out: Growth IC50
Protocol: as §1, §2, §3, §4, §5, §6, §7, §8

SU-DHL-6 = assay: In vitro tumor cell proliferation (CellTiter-Glo), SU-DHL-6; type: cell-based; conditions: Homo sapiens, SU-DHL-6, 72 h; read-out: Growth IC50
Protocol: as §1, §2, §3, §4, §5, §6, §7, §8

Sequence of Btk (Q06187 whole entry): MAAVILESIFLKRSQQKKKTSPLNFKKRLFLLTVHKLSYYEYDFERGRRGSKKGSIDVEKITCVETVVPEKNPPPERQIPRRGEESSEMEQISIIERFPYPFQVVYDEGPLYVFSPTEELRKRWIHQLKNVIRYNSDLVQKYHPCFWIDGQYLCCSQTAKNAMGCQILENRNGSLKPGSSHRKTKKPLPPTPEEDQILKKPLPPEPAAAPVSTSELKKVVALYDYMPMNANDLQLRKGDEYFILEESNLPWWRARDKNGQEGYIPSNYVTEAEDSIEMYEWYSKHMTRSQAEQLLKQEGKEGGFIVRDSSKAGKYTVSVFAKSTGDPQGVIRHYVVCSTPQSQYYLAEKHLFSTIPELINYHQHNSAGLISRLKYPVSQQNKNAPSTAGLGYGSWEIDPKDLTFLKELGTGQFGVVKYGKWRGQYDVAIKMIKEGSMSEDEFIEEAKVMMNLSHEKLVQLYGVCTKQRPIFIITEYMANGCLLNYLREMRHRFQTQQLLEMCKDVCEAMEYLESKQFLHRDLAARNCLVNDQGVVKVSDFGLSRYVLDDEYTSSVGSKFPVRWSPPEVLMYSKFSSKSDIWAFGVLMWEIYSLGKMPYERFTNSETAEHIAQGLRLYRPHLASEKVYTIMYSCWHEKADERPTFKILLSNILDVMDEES

In the case of `C=CC(=O)NN1CCCC(n2nc(-c3ccc(Oc4ccccc4)cc3)c3c(N)ncnc32)C1` (stereo not shown) [Embodiment 6, N-(3-(4-amino-3-(4-phenoxyphenyl)-1H-pyrazolo[3,4-D]pyrimidine-1-yl)-1-piperidyl)-acrylamide], the IC50 (Btk) is reported as 0.27 nM, the “Remaining (*NCF = 60 min)” value ([1]; RLM 0.5, 60 min, no co-factor) is reported as 105.4% and the “Remaining (T = 60 min)” value ([1]; RLM 0.5, 60 min with NADPH regenerating system) is reported as 1.1%. It also gave a half-life at 1 µM ([1]; rat, liver microsomes, pH 7.4, RLM 0.5 (0.5 mg protein/mL)) of 8.9 min, a microsomal CLint at 1 µM ([1]; rat, liver microsomes, pH 7.4, RLM 0.5, read-out: CLint(mic)) of 155 µL/min/mg and a CLint scaled at 1 µM ([1]; rat, liver microsomes, pH 7.4, RLM 0.5, scaled from CLint(mic)) of 280 mL/min/kg. It also gave an AUC(0-t) ([2]; IV, 2 mg/kg) of 888 ng·h/mL, a Cmax ([2]; IV, 2 mg/kg) of 1230 ng/mL and a Tmax ([2]; IV, 2 mg/kg) of 4.98 min. It also gave a half-life ([2]; IV, 2 mg/kg) of 48 min, an AUC(0-t) ([2]; PO, 30 mg/kg) of 7420 ng·h/mL and a Cmax ([2]; PO, 30 mg/kg) of 3830 ng/mL. The Tmax ([2]; PO, 30 mg/kg) was 49.8 min, the half-life ([2]; PO, 30 mg/kg) was 45 min and the bioavailability ([2]; dog, oral, 30 mg/kg) was 54.6%. It also gave an IC50 (TMD8) of 0.85 nM, an IC50 (SU-DHL-4) of 75 nM and an IC50 (WSU-NHL) of 1020 nM. The IC50 (Ramos) was 1400 nM, the IC50 (Granta-519) was 7060 nM and the IC50 (DB) was > 10000 nM. For the same compound, the IC50 (SU-DHL-6) was > 10000 nM.
